Test results from article doi:10.1101/2024.04.30.591959v2, “Structural insights into human propionyl-CoA carboxylase (PCC) and 3-methylcrotonyl-CoA carboxylase (MCC)” (biorxiv, 2024).

Columns and labels:
Experiment in all cases: cryo-EM structure, […] Å
Format in all cases: binding
human PCC holoenzyme [1] = target: T1, human PCC holoenzyme (Homo sapiens, UniProt P05166); settings: 10 mM acetyl-CoA, 25 mM NaHCO3, 10 mM MgCl2, 10 mM ATP, pH 7.4; CT-domain active site; acyl group not resolved in map
T1 construct: gene PCCB; endogenous untagged holoenzyme, native purification from Expi 293F cells on Strep-Tactin XT via covalently linked biotin (K694 of PCCα); α6β6 dodecamer; acyl-CoA site between CT-C of one β and CT-N of another β; with Propionyl-CoA carboxylase alpha chain, mitochondrial
T1 sequence (P05166 29-539): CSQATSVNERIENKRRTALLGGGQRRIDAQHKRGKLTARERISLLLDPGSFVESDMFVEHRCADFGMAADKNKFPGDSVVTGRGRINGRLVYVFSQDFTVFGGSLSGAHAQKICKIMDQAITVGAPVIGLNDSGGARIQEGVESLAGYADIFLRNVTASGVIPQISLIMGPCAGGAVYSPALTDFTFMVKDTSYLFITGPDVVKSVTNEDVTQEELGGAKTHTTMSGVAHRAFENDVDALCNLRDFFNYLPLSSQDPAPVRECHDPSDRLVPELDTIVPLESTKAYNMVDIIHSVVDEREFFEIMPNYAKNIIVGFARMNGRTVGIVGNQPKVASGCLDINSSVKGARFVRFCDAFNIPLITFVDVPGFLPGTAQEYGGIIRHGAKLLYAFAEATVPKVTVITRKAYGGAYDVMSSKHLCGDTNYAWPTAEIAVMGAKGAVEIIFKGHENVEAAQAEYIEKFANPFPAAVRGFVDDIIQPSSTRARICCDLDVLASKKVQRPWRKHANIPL
T1 sequence (P05165 53-728 partner): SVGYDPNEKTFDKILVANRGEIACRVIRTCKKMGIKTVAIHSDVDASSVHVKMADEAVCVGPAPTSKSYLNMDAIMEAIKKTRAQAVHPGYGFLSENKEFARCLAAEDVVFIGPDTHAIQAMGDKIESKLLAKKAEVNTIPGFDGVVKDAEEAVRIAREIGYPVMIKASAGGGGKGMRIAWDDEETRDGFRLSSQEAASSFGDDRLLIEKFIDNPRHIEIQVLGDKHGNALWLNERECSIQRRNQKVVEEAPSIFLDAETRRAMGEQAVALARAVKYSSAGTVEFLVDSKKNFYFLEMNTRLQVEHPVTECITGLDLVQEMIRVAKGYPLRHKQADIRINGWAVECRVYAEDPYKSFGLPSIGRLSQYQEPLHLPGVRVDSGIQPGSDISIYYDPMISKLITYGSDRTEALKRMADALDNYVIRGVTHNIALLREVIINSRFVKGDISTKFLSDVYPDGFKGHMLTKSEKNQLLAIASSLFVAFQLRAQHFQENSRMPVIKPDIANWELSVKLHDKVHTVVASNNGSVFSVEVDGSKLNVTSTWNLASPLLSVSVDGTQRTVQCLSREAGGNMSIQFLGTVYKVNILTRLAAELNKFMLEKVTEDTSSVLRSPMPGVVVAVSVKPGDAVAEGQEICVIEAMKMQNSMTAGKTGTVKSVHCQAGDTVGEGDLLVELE

human MCC holoenzyme = target: T2, human MCC holoenzyme (Homo sapiens, UniProt Q9HCC0); settings: 10 mM acetyl-CoA, 25 mM NaHCO3, 10 mM MgCl2, 10 mM ATP, pH 7.4; CT-domain acyl-CoA pocket; not the natural substrate
T2 construct: gene MCCC2; endogenous untagged holoenzyme, native purification from Expi 293F cells on Strep-Tactin XT via covalently linked biotin (K681 of MCCα); α6β6 dodecamer; acyl-CoA site between CT-C of one β and CT-N of another β; with Methylcrotonoyl-CoA carboxylase subunit alpha, mitochondrial
T2 sequence (Q9HCC0 23-563): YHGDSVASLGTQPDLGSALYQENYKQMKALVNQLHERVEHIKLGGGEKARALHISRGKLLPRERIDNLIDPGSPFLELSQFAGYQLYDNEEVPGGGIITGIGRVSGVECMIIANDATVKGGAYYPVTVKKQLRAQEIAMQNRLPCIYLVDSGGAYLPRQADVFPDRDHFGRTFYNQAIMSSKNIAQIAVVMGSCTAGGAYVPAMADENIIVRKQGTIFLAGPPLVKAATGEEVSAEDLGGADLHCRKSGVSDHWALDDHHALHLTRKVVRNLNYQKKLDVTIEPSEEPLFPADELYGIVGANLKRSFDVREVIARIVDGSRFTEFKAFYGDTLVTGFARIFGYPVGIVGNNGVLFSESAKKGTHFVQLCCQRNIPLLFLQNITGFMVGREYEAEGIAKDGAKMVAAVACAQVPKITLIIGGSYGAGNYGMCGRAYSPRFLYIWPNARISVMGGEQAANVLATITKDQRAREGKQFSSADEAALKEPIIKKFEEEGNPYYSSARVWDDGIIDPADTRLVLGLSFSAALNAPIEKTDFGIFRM
T2 sequence (Q96RQ3 42-725 partner): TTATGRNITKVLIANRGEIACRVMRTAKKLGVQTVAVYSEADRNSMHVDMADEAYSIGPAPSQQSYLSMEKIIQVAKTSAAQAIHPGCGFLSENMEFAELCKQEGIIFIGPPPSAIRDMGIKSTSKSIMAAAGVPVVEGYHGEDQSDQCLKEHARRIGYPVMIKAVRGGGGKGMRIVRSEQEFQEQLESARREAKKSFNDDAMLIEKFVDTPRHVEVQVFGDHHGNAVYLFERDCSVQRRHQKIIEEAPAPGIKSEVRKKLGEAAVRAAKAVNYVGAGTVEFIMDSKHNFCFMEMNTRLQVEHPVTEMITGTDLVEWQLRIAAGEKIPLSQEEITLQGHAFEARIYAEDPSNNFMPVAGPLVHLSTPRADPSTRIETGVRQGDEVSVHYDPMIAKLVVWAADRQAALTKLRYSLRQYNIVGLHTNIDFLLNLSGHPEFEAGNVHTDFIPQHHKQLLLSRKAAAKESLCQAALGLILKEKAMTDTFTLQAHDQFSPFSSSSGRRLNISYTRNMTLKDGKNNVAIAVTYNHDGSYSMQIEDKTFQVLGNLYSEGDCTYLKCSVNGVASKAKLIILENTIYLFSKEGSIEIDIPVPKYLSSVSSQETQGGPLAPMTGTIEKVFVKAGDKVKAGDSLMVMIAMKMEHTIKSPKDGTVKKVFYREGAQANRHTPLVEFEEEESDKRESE

human PCC holoenzyme [2] = target: T1, human PCC holoenzyme; settings: 10 mM propionyl-CoA, 25 mM NaHCO3, 10 mM MgCl2, 10 mM ATP, pH 7.4; CT-domain active site; acyl group not resolved in map

Compound	cryo-EM structure, 3.38 Å (human PCC holoenzyme [1])	cryo-EM structure, 2.85 Å (human MCC holoenzyme)	cryo-EM structure, 2.80 Å (human PCC holoenzyme [2])
CC(=O)SCCNC(=O)CCNC(=O)[C@H](O)C(C)(C)COP(=O)(O)OP(=O)(O)OC[C@H]1O[C@@H](n2cnc3c(N)ncnc32)[C@H](O)[C@@H]1OP(=O)(O)O [acetyl-CoA]	The acetyl-CoA in the PCC-ACO structure has a binding mode similar to the propionyl-CoA	PCC and MCC holoenzymes in the acetyl-CoA-bound state (referred to as PCC-ACO and MCC-ACO)	
CCC(=O)SCCNC(=O)CCNC(=O)[C@H](O)C(C)(C)COP(=O)(O)OP(=O)(O)OC[C@H]1O[C@@H](n2cnc3c(N)ncnc32)[C@H](O)[C@@H]1OP(=O)(O)O [propionyl-CoA]			six propionyl-CoA molecules are observed binding to the six active sites of CT domains
